# Values joined by “and” are separate entries in the source; they are usually repeats but may differ in a detail not shown here. Equal entries are not always repeated. “Also recorded” adds a separate entry of the source. Where two headings read alike, the source gives them in different places.
# Experiments:
# [1] = molecular target: T1, Gal-1 (Galectin-1) (Homo sapiens, UniProt P09382); experiment: Isothermal titration calorimetry, binding to Gal-1; conditions: for Kd in HEPES buffer (values not given): HEPES buffer containing 0.05% Tween-20, control titrations; for −TΔS / −ΔG / −ΔH / Gal-1 binding affinity in words: phosphate buffer pH 7.2; for n-value: rounded/summary values in text, Gal-1 treated as a dimer for concentration input; for Gal-1 binding affinity in words: ITC in solution
# T1 sequence (P09382 whole entry): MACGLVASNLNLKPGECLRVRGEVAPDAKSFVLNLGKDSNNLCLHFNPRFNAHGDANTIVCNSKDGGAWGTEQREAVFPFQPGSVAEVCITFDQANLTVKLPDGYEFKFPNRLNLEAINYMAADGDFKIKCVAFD
# [2] = molecular target: his-tagged Gal-1 (Homo sapiens, UniProt P09382); experiment: Isothermal titration calorimetry, binding to his-tagged Gal-1; conditions: for n (binding stoichiometry): lectin treated as a dimer; for agreement of titrations: his-tagged Gal-1 vs Gal-1 and previously reported value, ref [40]
# Chain of his-tagged Gal-1 (P09382 whole entry): as above
# [3] = molecular target: T2, Gal-3 (Galectin-3) (Homo sapiens, UniProt P17931); experiment: Binding to Gal-3; conditions: Gal-3 affinity greater than Gal-1 (Table 1 and Fig. S15)
# T2 sequence (P17931 whole entry): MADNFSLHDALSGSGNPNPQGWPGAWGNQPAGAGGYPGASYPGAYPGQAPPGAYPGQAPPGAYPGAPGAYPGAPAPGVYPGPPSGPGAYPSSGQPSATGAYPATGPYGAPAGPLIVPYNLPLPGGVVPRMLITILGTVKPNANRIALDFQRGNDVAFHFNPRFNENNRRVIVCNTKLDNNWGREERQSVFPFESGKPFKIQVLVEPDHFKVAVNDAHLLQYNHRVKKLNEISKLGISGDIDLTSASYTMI
# [4] = tested on: Gal-1 CRD in Gal-1/Gal-3 heterodimers; conditions: sequential model, at full loading, ref [48]; cited from earlier work
# [5] = molecular target: T2, Gal-3 (Galectin-3); conditions: ref [34]; cited from earlier work
# [6] = tested on: Gal-1; conditions: glycan microarray format, ref [29]; cited from earlier work
# [7] = tested on: Gal-1, His52 mutant; conditions: mutagenesis of His52 enabled binding of TF; ref [16]; cited from earlier work
# [8] = molecular target: T1, Gal-1 (Galectin-1); conditions: in solution, isothermal titration calorimetry, ref [16]; cited from earlier work
# [9] = molecular target: Galectin-3 (UniProt P17931 1-250); experiment: ITC
# Chain of Galectin-3 (P17931 whole entry): as above
# [10] = molecular target: histidine-tagged Galectin-1 (human, UniProt P09382 1-135); experiment: ITC
# Chain of histidine-tagged Galectin-1 (P09382 whole entry): as the sequence (P09382 whole entry) above
# [11] = molecular target: Galectin-1 (human, UniProt P09382 1-135); experiment: ITC
# Chain of Galectin-1 (P09382 whole entry): as above
# [12] = ITC, 25 °C, one-set-of-sites model
# [13] = ITC, PEAQ-ITC, 25 °C, 20 mM phosphate, 10 mM NaCl, 10 mM β-mercaptoethanol, pH 7.2, one-set-of-sites model, [ligand] mM/[cell] μM: LacNAc 6.0/140, lactose 8.0/80, ASF 218/61 (so in the source), TF and Thr-TF 6.0/50
# [14] = ITC, 25 °C, pH 7.2, ASF at 0.525 mM
# [15] = second ASF titration: 0.700 mM ASF, 200 μM His-tag-Gal-1, ITC, 25 °C, pH 7.2
"−TΔS [1, 12] [kcal/mol]","−ΔG [1, 12] [kcal/mol]","−ΔH [1, 12]","Ka [1, 13] [M⁻¹]","Kd [1, 13] [mM]",n-value [1],"−TΔS [2, 14] [kcal/mol]","−ΔG [2, 14] [kcal/mol]","−ΔH [2, 14]","n (binding stoichiometry) [2, 14]",Molecule,Kd in HEPES buffer (values not given) [1],agreement of titrations [2],Gal-1 binding affinity in words ([1]; 25 °C),other results
4.40,5.57,9.97 (± 0.151) kcal/mol,12000,0.083,2,4.27,5.53,9.79 (± 0.206) kcal/mol,2.02,"CC(=O)N[C@H]1C(O)O[C@H](CO)[C@@H](O[C@@H]2O[C@H](CO)[C@H](O)[C@H](O)[C@H]2O)[C@@H]1O (some centres unmarked) [LacNAc, N-Acetyllactosamine]",mirrored the values obtained in phosphate buffer,in agreement with values obtained for Gal-1 and previously reported value,,Gal-3 affinity relative to Gal-1 [3]: ~2 x
13.4,3.30,16.7 (± 0.221) kcal/mol,260,,,,,,,"CC(=O)N[C@@H](C=O)[C@@H](O[C@@H]1O[C@H](CO)[C@H](O)[C@H](O)[C@H]1O)[C@@H](O)[C@H](O)CO [TF, 2-Acetamido-2-deoxy-3-O-β-D-galactopyranosyl-D-galactose]",,,,"Affinity of the Gal-1 CRD for TF [4]: high mM range; Thermodynamic driving force of Gal-3 binding [5]: enthalpy-driven; Gal-1 binding to TF antigen, glycan microarray [6]: did not bind significantly; Affinity of TF for His52-mutated Gal-1 [7]: high μM affinity; Kd [1]: 3.8 mM; Gal-1 binding affinity in words ([1]; 25 °C, listed as TF disaccharide): binding by Gal-1 in mM range; also recorded: failed to recognize TF disaccharide and Thr-TF (TF antigen) beyond the millimolar affinity; Gal-1 recognition of TF antigen by ITC (Bian et al.) [8]: failed to observe Gal-1 recognition of the TF antigen in solution beyond millimolar affinity"
7.09,,11.9 (± 0.906) kcal/mol,,,2,4.04,,8.67 (± 1.43) kcal/mol,2.05,"OC[C@H]1O[C@@H](O[C@H]2[C@H](O)[C@@H](O)C(O)O[C@@H]2CO)[C@H](O)[C@@H](O)[C@H]1O (mixture of isomers) [Lactose, lactose]",,in agreement with values obtained for Gal-1 and previously reported value,,
13.3,3.28,16.6 (± 0.269) kcal/mol,250,3.96,,,,,,"CC(=O)NC1C(OC(C)C(N)C(=O)O)OC(CO)C(O)C1OC1OC(CO)C(O)C(O)C1O (centres unmarked) [Thr-TF, Gal1–3βGalNAcα1-O-Thr]",,,failed to recognize TF disaccharide and Thr-TF (TF antigen) beyond the millimolar affinity,"Gal-1 binding affinity in words ([1]; 25 °C, listed as Thr-TF antigen): binding by Gal-1 in mM range"
58.2,7.15,,174000,0.00576,,50.1,7.37,,,"ASF: Asialofetuin from fetal calf serum Type 1, a glycoprotein with three triantennary LacNAc presentations",mirrored the values obtained in phosphate buffer,in agreement with values obtained for Gal-1 and previously reported value,remained in the uM range; also recorded: low micromolar affinity,"Ka [2, 15]: 340100 M⁻¹; Kd [2, 15]: 2.94 µM; −TΔS [2, 15]: 49.6 kcal/mol; −ΔG [2, 15]: 7.55 kcal/mol"
,,,,,,,,,,"Asialofetuin (ASF) from fetal calf serum Type 1 (natural protein, bovine (from fetal calf serum), UniProt P12763 19-359, looked up, desialylated glycoprotein with three triantennary LacNAc presentations (glycan valency of nine)) IPLDPVAGYKEPACDDPDTEQAALAAVDYINKHLPRGYKHTLNQIDSVKVWPRRPTGEVYDIEIDTLETTCHVLDPTPLANCSVRQQTQHAVEGDCDIHVLKQDGQFSVLFTKCDSSPDSAEDVRKLCPDCPLLAPLNDSRVVHAVEVALATFNAESNGSYLQLVEISRAQFVPLPVSVSVEFAVAATDCIAKEVVDPTKCNLLAEKQYGFCKGSVIQKALGGEDVRVTCTLFQTQPVIPQPQPDGAEAEAPSAVPDAAGPTPSAAGPPVASVVVGPSVVAVPLPLHRAHYDLRHTFSGVASVESSSGEAFHVGKTPIVGQPSIPGGPVRLCPGRIRYFKI",,,,fold affinity for ASF against Gal-1 [9]: ~12 fold; -dH [10]: 57.1 kcal/mol and 57.5 kcal/mol; stoichiometry N [10]: 0.274 and 0.283; -dH [11]: 65.4 ± 1.42 kcal/mol; stoichiometry N [11]: 0.222

# Source: paper PMC7680447 (Glycoconjugate journal, 2020)
